Laboratory results published in patent publication US9205073B2, “Method for treating virus infection using derivative of aniline” (CHINA MEDICAL UNIVERSITY, priority 2014, dated 2015).

Row | melting point | Structure (SMILES)
1 | 159.5 °C | CCOC(=O)C1=C(Nc2cccc(Cl)c2)OCC1=O
2 | 115 to 116 °C | CCOC(=O)C1=C(Nc2ccccc2)OCC1=O
3 | 210 to 211 °C | CCOC(=O)C1=C(Nc2cccc(O)c2)OCC1=O
4 | 145.6 °C | CCOC(=O)C1=C(Nc2cc(OC)cc(OC)c2)OCC1=O
